Tests used:
[1] = system: 143B cells; test: Stable isotope tracing with uniformly labeled 13C-glutamine; assay type: cell-based; details: [U-13C]glutamine
Experimental: 1-5.0×10^6 cells were harvested on dry ice with 1 mL pre-chilled 80% HPLC-grade methanol (Fluka Analytical). The cell mixture was incubated for 15 min on dry ice prior to centrifugation at 18,000 × g for 10 min at 4°C. The supernatant was retained, and the remaining cell pellet was resuspended in 800 µL chilled 80% methanol and centrifuged. Supernatant was combined with the previous retention and was lyophilized using a SpeedVac (Thermo Fisher). Lyophilized samples were resuspended in 20 µL ultrapure water and subjected to metabolomics profiling using the AB/SCIEX 5500 QTRAP triple quadrupole instrument. Data analysis was performed using the GiTools software. 13C-labeled glutamine and glucose was acquired in SIGMA (605166 and 389374).
Encouraged by the beneficial effects of ME1 and because ME1-dependent NADPH production is linked to intracellular malate levels, we sought to investigate the metabolic pathways and nutrients that maintain malate production upon disruption of the ETC. It is firmly believed that in cells and tissues with defective ETC function, elevated NADH/NAD+ ratio inhibits the Pyruvate dehydrogenase complex (PDC), suppressing pyruvate entry into the mitochondria and forcing its channelling towards the Lactate Dehydrogenase (LDH) in the cytosol. […] To investigate the metabolic routes that ETC-inhibited cells used to generate glutamine-derived malate, we performed an MS-based stable isotope tracing study. DMSO and Piericidin treated 143B cells were cultured in glucose-DMEM supplemented with 2 mM of uniformly labeled [^13C]glutamine, and the incorporation of ^13C into the TCA cycle and related metabolic intermediates was quantified. Oxidative metabolism of [U-^13C]glutamine would generate M+4 isotopologues of oxaloacetate (OAA) and malate, while reductive carboxylation due to ETC inhibition (TCA cycle running in a counterclockwise direction) would produce M+3 forms of OAA and malate. DMSO-treated 143B cells used glutamine as the major anaplerotic precursor, resulting in a large amount of malate M+4. As expected, the oxidation of glutamine via the TCA cycle in CI-inhibited cells was severely diminished with a 5-fold decreased in M+4 labeled malate. Nevertheless, these cells produced citrate M+5 through reductive carboxylation of glutamine-derived a-ketoglutarate. This reaction involves addition of an unlabeled carbon by IDH2 acting in reverse relative to the canonical oxidative TCA cycle. Malate M+3 also rose more than a ~2-fold in CI-inhibited cells and was likely formed after cleavage of citrate M+5 by ATP-citrate lyase (ACLY) since this induction was blunted in ACLY KO cells. Thus, cells with defective ETC use glutamine-dependent reductive carboxylation rather than oxidative metabolism as the major pathway of malate production. […]

[2] = system: primary neurons; test: Neuron axon morphology (immunofluorescence); assay type: cell-based, mouse; details: CI inhibition, 100 nM 24 h, extensive axon degeneration
Experimental: Primary cultures of C57BL/6 mouse cortical neurons were prepared from embryos between embryonic days 16.5 and 17.5 and seeded onto pre-treated plates coated with Poly-L-lysine hydrobromide (500 µg/ml). We used Neurobasal medium without D-glucose and sodium pyruvate (ThermoFisher) to modulate D-glucose levels, depending on the experiment (2.5 mM, 5 mM, or 25 mM).
Neuron axon morphology was quantified in primary neurons exposed to DMSO or 100 nM piericidin for 24 h. Neurons were fixed with 4% paraformaldehyde for 10 min, blocked, and permeabilized in 0.1% Triton X-100 (Tx)-PBS with 10% fetal bovine serum for 15 minutes at room temperature. Then, neurons were incubated with the primary BIII-Tubulin antibody (1:500, ab78078, Abcam) in 0.1% Tx/10% FBS-PBS overnight at 4°C. Subsequently, wells were rinsed several times in PBS before applying the fluorochrome-conjugated secondary antibody (ThermoScientific) in 0.1% Tx/10% FBS-PBS for 1h at room temperature. Neurons were finally washed in PBS, and DAPI was added prior to the microscopic analysis. Acquired confocal images were quantified by measuring the BIII-Tubulin fluorescent integrated density and normalized by the number of DAPI-positive nuclei.

[3] = system: primary neurons; test: Intracellular calcium mobilization (excitability) assay; assay type: cell-based, mouse; details: CI inhibition
Experimental: Neuronal functionality was measured by the Rhod-4 No Wash Calcium Assay Kit (Abcam, Cat No. ab112157), following the manufacturer's instructions for intracellular calcium assay. In short, culture medium was removed, and Rhod-4 dye containing buffer was gently added to cells, followed by incubation at 37 degrees for 30 min followed by 20 min at room temperature. For imaging and quantification of intracellular calcium mobilization, confocal images were acquired using a Zeiss LSM800 confocal microscope (Jena, Alemania) enabled with a 10X objective. Time lapse images of the confocal scan were acquired every 0.5 second over a ten-minute period. Neuronal cultures were treated with 100mM KCl (final concentration) added after the first 4 minutes to establish a baseline and observe the steady- state changes in calcium mobilization in response to the treatment. Acquired confocal images were post-processed using the free and open-source Fiji image processing software. Fluorescent intensity changes were quantified using fixed parameters across the entire set of captured images.

[4] = CI-inhibited vs DMSO 143B cells

CC=C(C)C(O)C(C)C=C(C)C=CCC(C)=CCc1nc(OC)c(OC)c(O)c1C (stereo not drawn) [Piericidin, Piericidin A]
decrease in M+4 labeled malate [1, 4]: 5 fold
rise of Malate M+3 [1, 4]: > 2 fold
labeling of malate M+3 ([1]; control and PC KO cells, 24 h): increasing
malate M+4 ([1]; control and PC KO cells, 24 h): reduction
neuron morphology [2]: significant morphological alterations
excitability response [3]: diminished
